Five compounds from patent publication US9024069B2, “NONOate derivatives and uses thereof” (Ironwood Pharmaceuticals, priority 2012, dated 2015) can be followed below.

Data set [1] in a line: Nitric oxide (NOx) level after oral dosing in male rats, Nitrate/Nitrite Colorimetric Assay. The class given is in vivo, rat. The settings on record: male SD rats, oral gavage; Fenofibrate 24.8 mg/kg, compounds 6, 7, 8 at 32, 34, 33.8 mg/kg; FIG. 2. The protocol:
15 male SD (Sprague Dawley) rats were allowed to acclimate for at least 3 days. Fenofibrate, compounds 6, 7, and 8 were administered via oral gavage at molar equivalent doses of 24.8, 32, 34, 33.8 mg/kg, respectively. Animals were fasted overnight and had their food replaced 4 hours after dosing. Compounds were formulated in 300 μL of 100% PEG400. Animals were euthanized under CO2 at the 24 hr time point. Plasma samples were taken for analytical determination of fenofibric acid from compounds in vacutainers containing sodium fluoride. Serum samples were taken for nitric oxide level determination in BD serum collection tubes.
Fenofibric acid was extracted from the plasma using an acetonitrile protein precipitation method. Samples were run on a Waters Aquity TQD LC-MS/MS and analyzed using the MassLynx software. Nitric Oxide levels were measured in serum using a Nitrate/Nitrite Colorimetric Assay Kit from Caymen Chemicals.

In data set [2] the test system is high fat, high cholesterol diet rats. Put plainly: Rat high fat, high cholesterol diet model (VAP lipid analysis). Format: in vivo. The settings on record: HFHC diet rats, once daily p.o. for seven days, compound 8 at 3, 10, 30 mg/kg, Fenofibrate at 2.2, 7.3, 22 mg/kg; for very low-density lipoprotein (VLDL) cholesterol: FIG. 4; for HDL: FIG. 5. The protocol: Compounds were tested for effects on cholesterol and lipid profiles in a rat high fat diet model for example as described in Ghibaudi et al. (2002) Obes Res 10:956-63, Ricci and Levin (2003) Am J Physiol Regul Integr Comp Physiol 285:R610-8, and Gao et al. (2002) 936:87-90. Alternatively, animals were fed either a normal diet or a chow supplemented with added fat and/or cholesterol as described in Krause et al (1994) Pharm Res VoI 29, No. 4, Nishina (1993) J of Lipid Res vol 43. and Gajda et al. (2007) Animal Lab News. Based on the specific chows used in these reports, animals were fed a diet consisting of 40% fat, 1% cholesterol, and 0.5% cholic acid (catalog #D01061201, Research Diets, New Brunswick, N.J. 08901).
After at least a week on this diet, animals (6-8/group) are dosed once daily perorally with 500 uL test compounds in PEG 400. Groups are dosed for at least one week before whole blood samples are taken for analysis. Blood serum is analyzed using Vertical Auto Profile (VAP; Atherotech, Inc., Birmingham, Ala.) analysis similar to as described in Kulkarni (2006) Clin Lab Med 26:787-802.
Fenofibrate (Sigma—Cat# F6020-5G, Lot#017K1401) was tested in this assay at 2.2, 7.3 and 22 mg/kg which were equimolar equivalents (for the fenofibric acid moiety) of Compound 8 dosed at 3, 10 and 30 mg/kg. In these experiments animals (n=6 per group) were fed a high fat high cholesterol chow (HFHC; 40% fat, 1% cholesterol, 0.5% cholic acid) diet for one week before test compound administration. Animals received either vehicle only (PEG 400) or test compound (compound 8 at 3, 10 or 30 mg/kg or fenofibrate at 2.2, 7.3 or 22 mg/kg) for seven days before whole blood samples were taken for analysis.

For the next data set, the system named is L-NAME hypertensive rats. Put plainly: Rat L-NAME induced hypertension blood pressure model. The class given is in vivo. The settings on record: oral gavage, 6 hours monitoring, compound 8 at 10, 30, 60 mg/kg, Fenofibrate 49.6 mg/kg, FIGS. 7 and 8. The protocol: L-NAME induced hypertension model was carried out at Pharmoptima. Based on the rats' projected average daily water intake, the NO synthase inhibitor L-NAME, L-NG-nitroarginine methyl ester, which induces hypertension, were dissolved in their drinking water so that the rats self-administered tested compounds for 2 weeks prior to study at the targeted daily L-NAME dosage. The rats' L-NAME/water solution was reformulated every other day to insure potency.
After 2 weeks of oral L-NAME preconditioning, the rats were anesthetized with inhaled isoflurane (3-4% in oxygen) and implanted a small bore femoral artery catheter to permit cardiovascular (CV) monitoring under conscious unrestrained conditions. A total of 36 rats (18 rats/day on two consecutive days) were prepared. The catheters were sealed with sodium heparin to maintain patency.
Allow 2 days of post-operative recovery prior to study, allowing full access to food and water (containing dissolved L-NAME) water.
On the study treatment day, […] (n=6×5 treatments) were set up in bell jars under routine non-fasted conditions. Start recording mean arterial pressure (MAP) and heart rate (HR) from this first set of cannulated rats as per previous studies conducted by PharmOptima. Once stable, the rats were dosed by oral gavage. CV data were recorded from the rats over the ensuing 6 hours. 3 arterial blood samples were taken per rat and the harvested plasma samples were frozen.

Another data set relates to rat aortic ring. Put plainly: Thoracic aortic rings assay (vasorelaxation of phenylephrine-contracted rings). The class given is ex vivo tissue. As to conditions: rat thoracic aortic rings contracted with 100 ng/mL phenylephrine; cumulative dosing; FIG. 3. The protocol:
Thoracic aortic rings were dissected from anesthetized (isoflurane) male Sprague-Dawley rats weighing 275-299 g. Tissues were immediately transferred to ice-cold Krebs-Henseleit solution, which had been aerated with 95% O2 and 5% CO2 for 30 minutes. Following removal of connective tissue, aortic sections were cut into 4 rings (˜2 mm each) and suspended on 2 L-shaped hooks, with one hook fixed at the bottom of the tissue bath (Schuler Organ Bath, Harvard Apparatus) and the other connected to a force transducer (F30 Force Transducer, Harvard Apparatus). Baths contained Krebs Henseleit solution (10 mL) heated to 37° C. and aerated with 95% O2 and 5% CO2. Rings were brought to an initial tension of 0.3-0.5 g and gradually raised to a resting tension of 1.0 g over 60 minutes. Rings were rinsed with Krebs Henseleit solution (heated to 37° C. and aerated with 95% 02 and 5% CO2) at 15 minute intervals until a stable baseline was obtained. Rings were considered to be stable after a resting tension of 1.0 g was maintained (for approximately 10 minutes) without need for adjustment. Rings were then contracted with 100 ng/mL phenylephrine by adding 100 uL of a 10 μg/mL phenylephrine stock solution. Tissues achieving a stable contraction were then treated in a cumulative, dose dependent manner with test compounds prepared in dimethylsulfoxide (DMSO). In some cases, tissues were rinsed three times over a 5 minute period with Krebs-Heinseleit's solution (heated to 37° C. and aerated with 95% O2 and 5% CO2), allowed to stabilize at baseline, and then used for characterization of other test articles or DMSO effects. All data were collected using the HSE-ACAD software provided by Harvard Apparatus. Percent relaxation effects were calculated in Microsoft Excel using the recorded tension value of 100 ng/mL phenylephrine treatment as 0% inhibition and treatment with 100 μM 3-isobutyl-1-methylxanthine as 100% inhibition. EC50 values were calculated from concentration-response curves generated with GraphPad Prism Software. […]

The next data set has as its system normotensive rats. Put plainly: Rat normotensive blood pressure model. The class given is in vivo. As to conditions: normotensive conscious SD rats, single oral dose 30 mg/kg, 6 hours monitoring; FIG. 6. From the text:
36 male SD rats were allowed to acclimate for at least 3 days. After conditioning the rats were arterially cannulated and assigned to 4 treatment groups, with the goal of achieving n=6/group.
After the acclimation period, the rats were briefly anesthetized with inhaled isoflurane and implanted a small bore femoral artery cannula to permit CV monitoring under conscious unrestrained conditions as conducted in prior studies. 18 rats were cannulated per day on 2 consecutive days and allowed 2 days of post-operative recovery prior to CV testing. 12 rats per day were monitored for each of 2 consecutive daily test sessions.
On the morning of the test sessions, the rats were placed in individual bell jars and their femoral artery cannulas were attached to pressure transducers. CV monitoring consisted of continuously recording mean arterial pressure (MAP) and spot checking heart rate (HR; every 5 to 7 minutes) prior to and for 6 hours after a single oral treatment as in previous studies.
Also on the morning of testing, 4 oral treatments in 500 μl of 100% PEG 400 were formulated. The rats were allowed about 1 hour of equilibration prior to dosing. Once suitably equilibrated, each rat was dosed with an oral vehicle or a drug, delivered by standard gavage. The CV recording was continued over the 6-hour post-treatment interval, occasional small flushes of heparinized saline (˜0.1 mL; 20 units/mL) were administered into their arterial catheters in order to maintain recording fidelity.
At the conclusion of the 6-hour CV monitoring interval, a terminal ˜0.6 mL arterial blood sample was taken and the serum or plasma was processed.

On to `CC(C)OC(=O)C(C)(C)Oc1ccc(C(=O)c2ccc(Cl)cc2)cc1` [Fenofibrate, 2-[4-(4-chlorobenzoyl)phenoxy]-2-methyl-propanoic acid, 1-methylethyl ester, reference compound], for which, in data set [1], the “nitric oxide levels in the plasma upon dosing” value (shortened to “nitric oxide levels”) is “no increase in nitric oxide”. In addition, in data set [2], the “very low-density lipoprotein (VLDL) cholesterol” value was “decreases in VLDL” and the HDL entry is “increases in HDL”. Moreover, in the data set on L-NAME hypertensive rats, the blood pressure result was “did not lower blood pressure”.
In the case of `CC(C)(Oc1ccc(C(=O)c2ccc(Cl)cc2)cc1)C(=O)OCO/N=[N+](\[O-])N1CCC[C@H]1CO` [Compound 8, (S,Z)-2-((2-(4-(4-chlorobenzoyl)phenoxy)-2-methylpropanoyloxy)methoxy)-1-(2-(hydroxymethyl)pyrrolidin-1-yl)diazene oxide], the “nitric oxide levels” value in data set [1] was “robust increase in nitric oxide levels”. Further, the vasorelaxant properties result with rat aortic ring is “potent vasorelaxant properties in the nM range”. Besides, in data set [2], the “very low-density lipoprotein (VLDL) cholesterol” value is “decreases in very low-density lipoprotein (VLDL) cholesterol” and the HDL result is reported as “dose related increases in HDL”. The blood pressure entry with normotensive rats is “lowering blood pressure”. For the same compound, the blood pressure entry with L-NAME hypertensive rats is listed as “lowered blood pressure in an L-NAME model of hypertension in a dose responsive manner”.
Turning to `CN(CCCCO)/[N+]([O-])=N/OCOC(=O)C(C)(C)Oc1ccc(C(=O)c2ccc(Cl)cc2)cc1` [Compound 7, (Z)-1-((2-(4-(4-chlorobenzoyl)phenoxy)-2-methylpropanoyloxy)methoxy)-3-(4-hydroxybutyl)-3-methyltriaz-1-ene 2-oxide], in data set [1], the “nitric oxide levels” value is “robust increase in nitric oxide levels”. Besides, in the data set on normotensive rats, the blood pressure result was “lowering blood pressure”.
Turning to `CN(CCO)/[N+]([O-])=N/OCOC(=O)C(C)(C)Oc1ccc(C(=O)c2ccc(Cl)cc2)cc1` [Compound 6, (Z)-1-((2-(4-(4-chlorobenzoyl)phenoxy)-2-methylpropanoyloxy)methoxy)-3-(2-hydroxyethyl)-3-methyltriaz-1-ene 2-oxide], the “nitric oxide levels” value in data set [1] is “robust increase in nitric oxide levels”. For the same compound, in the data set on rat aortic ring, the vasorelaxant properties entry is “potent vasorelaxant properties in the nM range”. Besides, the blood pressure entry in the data set with normotensive rats is listed as “lowering blood pressure”.
Take `O=[N+]([O-])O[C@H]1CO[C@H]2[C@@H]1OC[C@H]2O[N+](=O)[O-]` [ISDN, isosorbide dinitrate, reference compound]: the vasorelaxant properties result with rat aortic ring was “active in this assay as a vasorelaxant in the micromolar range”. For the same compound, in the data set on L-NAME hypertensive rats, the blood pressure entry is “moderate blood pressure lowering effect”.
